Structures can show the parent of a compound that is named as a salt.
Molecular target: cloned human NR1/NR2B ion channels (Homo sapiens (Human), UniProt Q05586+Q13224)
Assay: HNR2BC: effects of test articles on cloned human NR1/NR2B ion channels expressed in mammalian cells (FLIPR calcium flux)
Assay type: cell-based
Conditions: cloned human NR1/NR2B, Table 5
Protocol: HNR2BC: Effects of Test Articles on Cloned Human NR1/NR2B Ion Channels Expressed in Mammalian Cells
NMDA receptors are ion channels that are highly permeable to Ca^2+ ions, rendering it possible to monitor NMDA receptor function using cell-based calcium flux assay. In this assay, co-agonists glutamate and glycine are added to cells heterologously expressing human GluN1/GluN2B NMDA receptors to initiate cellular Ca^2+ influx. The time course of the changes in intracellular calcium is measured using a fluorescent dye and a FLIPR (Fluorometric Imaging Plate Reader) device.
Twenty four hours before measurements, the expression of the NMDA receptors in the stable cell line is induced with Tet-On inducible system in the presence of a non-selective NMDA receptor blocker. On the day of the experiment, cell culture media is carefully washed and the cells are loaded with Calcium 5 Dye Kit (Molecular Devices) in dye loading buffer containing 137 mM NaCl, 4 mM KCl, 2 mM CaCl2, 0.5 mM MgCl2, 10 mM HEPES and 5 mM D-glucose; pH 7.4. After 1 h incubation at the room temperature, the dye is washed away with the assay buffer (137 mM NaCl, 4 mM KCl, 2 mM CaCl2, 0.01 mM EDTA, 10 mM HEPES and 5 mM D-glucose; pH 7.4) In the FLIPR TETRA reader, various concentrations of the test compounds are added to the cells for 5 min while fluorescence is monitored to detect potential agonist activity. Next, co-agonists, glutamate and glycine are added for another 5 minutes. The concentration of glutamate corresponding to ˜EC80 is used to maximize the assay's signal window and ability to detect NMDA receptor antagonists and negative allosteric modulators. A saturating concentration (10 μM) of glycine is also present in the assay. […] The fluorescent signal in the presence of test compounds is quantified and normalized to the signal defined by the appropriate control wells.

cloned human NR1/NR2B ion channels, sequence (Q13224 27-1484, other chains not shown): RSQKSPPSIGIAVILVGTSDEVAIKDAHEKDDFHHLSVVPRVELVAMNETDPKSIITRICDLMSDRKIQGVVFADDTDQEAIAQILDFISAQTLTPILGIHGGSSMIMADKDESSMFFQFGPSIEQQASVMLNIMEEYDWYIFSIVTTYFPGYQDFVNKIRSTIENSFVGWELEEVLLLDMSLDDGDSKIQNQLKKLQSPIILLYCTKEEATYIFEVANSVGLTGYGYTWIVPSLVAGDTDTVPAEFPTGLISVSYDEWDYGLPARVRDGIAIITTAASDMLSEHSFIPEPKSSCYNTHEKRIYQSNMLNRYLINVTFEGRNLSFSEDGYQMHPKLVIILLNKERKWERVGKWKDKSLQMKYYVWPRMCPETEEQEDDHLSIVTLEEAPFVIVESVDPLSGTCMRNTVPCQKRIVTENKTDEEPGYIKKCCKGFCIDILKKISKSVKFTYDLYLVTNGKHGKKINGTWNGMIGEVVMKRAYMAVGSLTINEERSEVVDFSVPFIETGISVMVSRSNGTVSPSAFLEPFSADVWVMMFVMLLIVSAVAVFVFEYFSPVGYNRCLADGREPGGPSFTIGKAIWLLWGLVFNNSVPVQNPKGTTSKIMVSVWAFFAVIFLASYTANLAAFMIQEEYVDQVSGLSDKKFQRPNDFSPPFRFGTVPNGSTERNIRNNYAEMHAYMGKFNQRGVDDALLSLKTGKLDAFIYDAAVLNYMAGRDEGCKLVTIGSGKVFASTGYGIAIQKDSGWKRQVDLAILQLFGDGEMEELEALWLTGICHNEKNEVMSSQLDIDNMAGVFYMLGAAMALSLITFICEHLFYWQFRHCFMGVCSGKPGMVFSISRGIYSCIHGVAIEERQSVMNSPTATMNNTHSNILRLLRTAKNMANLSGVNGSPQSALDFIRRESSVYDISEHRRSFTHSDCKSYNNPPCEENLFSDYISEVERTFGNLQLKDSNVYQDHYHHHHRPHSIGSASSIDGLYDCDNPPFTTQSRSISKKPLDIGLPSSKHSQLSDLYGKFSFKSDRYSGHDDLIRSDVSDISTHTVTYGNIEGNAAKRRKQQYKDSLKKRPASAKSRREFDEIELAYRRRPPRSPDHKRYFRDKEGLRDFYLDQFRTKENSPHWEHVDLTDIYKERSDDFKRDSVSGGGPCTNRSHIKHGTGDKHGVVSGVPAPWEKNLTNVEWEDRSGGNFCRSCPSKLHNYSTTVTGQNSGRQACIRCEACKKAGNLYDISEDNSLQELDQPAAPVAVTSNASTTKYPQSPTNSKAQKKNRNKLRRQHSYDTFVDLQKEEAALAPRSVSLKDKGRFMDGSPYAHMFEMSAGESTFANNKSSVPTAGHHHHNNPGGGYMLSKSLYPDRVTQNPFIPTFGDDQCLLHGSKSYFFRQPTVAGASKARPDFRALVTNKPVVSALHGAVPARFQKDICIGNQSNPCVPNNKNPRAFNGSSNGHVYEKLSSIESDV

Compound | IC50 [nM]
O=C(Cn1cc(Cl)c2ncc(-c3ccc(F)cc3)cc21)N1CC(F)(F)C1 [Example 57, 2-[3-Chloro-6-(4-fluorophenyl)pyrrolo[3,2-b]pyridin-1-yl]-1-(3,3-difluoroazetidin-1-yl)ethanone] | 31.6
O=C(Cn1cc(Cl)c2ncc(-c3ccc(F)cc3)cc21)N1CC(F)C1 [Example 58, 2-[3-Chloro-6-(4-fluorophenyl)pyrrolo[3,2-b]pyridin-1-yl]-1-(3-fluoroazetidin-1-yl)ethanone] | 25.1
Cc1cc(Cn2ccc3ncc(-c4ccc(F)cc4C)cc32)no1 [Example 59, 3-[[6-(4-Fluoro-2-methyl-phenyl)pyrrolo[3,2-b]pyridin-1-yl]methyl]-5-methyl-isoxazole] | 39.8
Cc1cc(Cn2ccc3ncc(-c4cccc(C(F)(F)F)c4)cc32)no1 [Example 60, 5-Methyl-3-[[6-[3-(trifluoromethyl)phenyl]pyrrolo[3,2-b]pyridin-1-yl]methyl]isoxazole] | 100
Cc1cccc(-c2cnc3ccn(Cc4cc(C)on4)c3c2)c1 [Example 61, 5-Methyl-3-[[6-(m-tolyl)pyrrolo[3,2-b]pyridin-1-yl]methyl]isoxazole trifluoroacetate salt] | 398
Cc1cc(Cn2ccc3ncc(-c4ccccc4C)cc32)no1 [Example 62, 5-Methyl-3-[[6-(o-tolyl)pyrrolo[3,2-b]pyridin-1-yl]methyl]isoxazole trifluoroacetate salt] | 126
Cc1cc(Cn2ccc3ncc(-c4ccc(F)c(C)c4)cc32)no1 [Example 63, 3-[[6-(4-Fluoro-3-methyl-phenyl)pyrrolo[3,2-b]pyridin-1-yl]methyl]-5-methyl-isoxazole trifluoroacetate salt] | 200
Cc1cc(Cn2ccc3ncc(-c4cc(F)cc(F)c4)cc32)no1 [Example 64, 3-[[6-(3,5-Difluorophenyl)pyrrolo[3,2-b]pyridin-1-yl]methyl]-5-methyl-isoxazole trifluoroacetate salt] | 63.1
Cc1cc(Cn2ccc3ncc(-c4ccc(F)cc4)cc32)no1 [Example 65, 3-[[6-(4-Fluorophenyl)pyrrolo[3,2-b]pyridin-1-yl]methyl]-5-methyl-isoxazole trifluoroacetate salt] | 79.4
Cc1cc(-c2cnc3ccn(CC(=O)NC4CCC4)c3c2)ccc1F [Example 66, N-Cyclobutyl-2-[6-(4-fluoro-3-methyl-phenyl)pyrrolo[3,2-b]pyridin-1-yl]acetamide trifluoroacetate salt] | 200
Cc1cc(-c2cnc3c(Br)cn(CC(=O)N4CCC4)c3c2)ccc1F [Example 68, 1-(Azetidin-1-yl)-2-[3-bromo-6-(4-fluoro-3-methyl-phenyl)pyrrolo[3,2-b]pyridin-1-yl]ethanone] | 39.8
Cc1cc(-c2cnc3c(F)cn(CC(=O)N4CCC4)c3c2)ccc1F [Example 69, 1-(Azetidin-1-yl)-2-[3-fluoro-6-(4-fluoro-3-methyl-phenyl)pyrrolo[3,2-b]pyridin-1-yl]ethanone] | 25.1
Cc1cc(-c2cnc3ccn(CC(=O)O)c3c2)ccc1F [Example 70, 2-[6-(4-Fluoro-3-methyl-phenyl)pyrrolo[3,2-b]pyridin-1-yl]acetic acid] | 50.1
O=C(Cn1ccc2ncc(-c3ccccc3F)cc21)N1CCC1 [Example 71, 1-(azetidin-1-yl)-2-[6-(2-fluorophenyl)pyrrolo[3,2-b]pyridin-1-yl]ethanone] | 7940
O=C(Cn1ccc2ncc(-c3cccc(F)c3)cc21)N1CCC1 [Example 72, 1-(Azetidin-1-yl)-2-[6-(3-fluorophenyl)pyrrolo[3,2-b]pyridin-1-yl]ethanone] | 251
Cc1ccc(-c2cnc3ccn(CC(=O)N4CCC4)c3c2)cc1 [Example 73, 1-(Azetidin-1-yl)-2-[6-(p-tolyl)pyrrolo[3,2-b]pyridin-1-yl]ethanone] | 39.8
CCc1cccc(-c2cnc3ccn(CC(=O)N4CCC4)c3c2)c1 [Example 74, 1-(Azetidin-1-yl)-2-[6-(3-ethylphenyl)pyrrolo[3,2-b]pyridin-1-yl]ethanone] | 200
O=C(Cn1ccc2ncc(-c3ccccc3F)cc21)NC1CC1 [Example 75, N-Cyclopropyl-2-[6-(2-fluorophenyl)pyrrolo[3,2-b]pyridin-1-yl]acetamide] | 50.1
O=C(Cn1ccc2ncc(-c3cccc(F)c3)cc21)NC1CC1 [Example 76, N-Cyclopropyl-2-[6-(3-fluorophenyl)pyrrolo[3,2-b]pyridin-1-yl]acetamide] | 1000
Cc1ccc(-c2cnc3ccn(CC(=O)NC4CC4)c3c2)cc1 [Example 77, N-Cyclopropyl-2-[6-(p-tolyl)pyrrolo[3,2-b]pyridin-1-yl]acetamide] | 251

Compound | IC50 [nM]
O=C(Cn1ccc2ncc(-c3ccccc3)cc21)N1CCCC1 [Example 78, 2-(6-Phenylpyrrolo[3,2-b]pyridin-1-yl)-1-pyrrolidin-1-yl-ethanone] | 1580
O=C(Cn1ccc2ncc(-c3ccccc3F)cc21)N1CCCC1 [Example 79, 2-[6-(2-Fluorophenyl)pyrrolo[3,2-b]pyridin-1-yl]-1-pyrrolidin-1-yl-ethanone] | 79.4
O=C(Cn1ccc2ncc(-c3ccc(F)cc3)cc21)N1CCCC1 [Example 80, 2-[6-(4-Fluorophenyl)pyrrolo[3,2-b]pyridin-1-yl]-1-pyrrolidin-1-yl-ethanone] | 316
Cc1cccc(-c2cnc3ccn(CC(=O)N4CCCC4)c3c2)c1 [Example 81, 2-[6-(m-Tolyl)pyrrolo[3,2-b]pyridin-1-yl]-1-pyrrolidin-1-yl-ethanone] | 316
Cc1ccc(-c2cnc3ccn(CC(=O)N4CCCC4)c3c2)cc1 [Example 82, 2-[6-(p-Tolyl)pyrrolo[3,2-b]pyridin-1-yl]-1-pyrrolidin-1-yl-ethanone] | 63.1
CCc1cccc(-c2cnc3ccn(CC(=O)N4CCCC4)c3c2)c1 [Example 83, 2-[6-(3-Ethylphenyl)pyrrolo[3,2-b]pyridin-1-yl]-1-pyrrolidin-1-yl-ethanone] | 251
O=C(Cn1ccc2ncc(-c3cccc(F)c3)cc21)N1CCCC1 [Example 84, 2-[6-(3-Fluorophenyl)pyrrolo[3,2-b]pyridin-1-yl]-1-pyrrolidin-1-yl-ethanone] | 79.4
O=C(Cn1ccc2ncc(-c3ccccc3)cc21)N1CCOCC1 [Example 85, 1-Morpholino-2-(6-phenylpyrrolo[3,2-b]pyridin-1-yl)ethanone] | 63.1
O=C(Cn1ccc2ncc(-c3ccccc3F)cc21)N1CCOCC1 [Example 86, 2-[6-(2-Fluorophenyl)pyrrolo[3,2-b]pyridin-1-yl]-1-morpholino-ethanone] | 501
O=C(Cn1ccc2ncc(-c3cccc(F)c3)cc21)N1CCOCC1 [Example 87, 2-[6-(3-Fluorophenyl)pyrrolo[3,2-b]pyridin-1-yl]-1-morpholino-ethanone] | 1000
O=C(Cn1ccc2ncc(-c3ccc(F)cc3)cc21)N1CCOCC1 [Example 88, 2-[6-(4-Fluorophenyl)pyrrolo[3,2-b]pyridin-1-yl]-1-morpholino-ethanone] | 251
Cc1cccc(-c2cnc3ccn(CC(=O)N4CCOCC4)c3c2)c1 [Example 89, 1-Morpholino-2-[6-(m-tolyl)pyrrolo[3,2-b]pyridin-1-yl]ethanone] | 200
Cc1ccc(-c2cnc3ccn(CC(=O)N4CCOCC4)c3c2)cc1 [Example 90, 1-Morpholino-2-[6-(p-tolyl)pyrrolo[3,2-b]pyridin-1-yl]ethanone] | 63.1
CCc1cccc(-c2cnc3ccn(CC(=O)N4CCOCC4)c3c2)c1 [Example 91, 2-[6-(3-ethylphenyl)pyrrolo[3,2-b]pyridin-1-yl]-1-morpholino-ethanone] | 1580
Cc1cc(-c2cnc3c(F)cn(CC(=O)N(C)C)c3c2)ccc1F [Example 92, 2-[3-Fluoro-6-(4-fluoro-3-methyl-phenyl)pyrrolo[3,2-b]pyridin-1-yl]-N,N-dimethyl-acetamide] | 126
CN(C)C(=O)Cn1cc(F)c2ncc(-c3ccc(F)c(F)c3)cc21 [Example 93, 2-[6-(3,4-Difluorophenyl)-3-fluoro-pyrrolo[3,2-b]pyridin-1-yl]-N,N-dimethyl-acetamide] | 39.8
CN(C)C(=O)Cn1cc(F)c2ncc(-c3cc(F)c(F)c(F)c3)cc21 [Example 94, 2-[3-Fluoro-6-(3,4,5-trifluorophenyl)pyrrolo[3,2-b]pyridin-1-yl]-N,N-dimethyl-acetamide] | 63.1
CN(C)C(=O)Cn1cc(F)c2ncc(-c3cccc(C(F)F)c3)cc21 [Example 95, 2-[6-[3-(Difluoromethyl)phenyl]-3-fluoro-pyrrolo[3,2-b]pyridin-1-yl]-N,N-dimethyl-acetamide] | 39.8
Cc1csc(-c2cnc3c(F)cn(CC(=O)N(C)C)c3c2)c1 [Example 96, 2-[3-Fluoro-6-(4-methyl-2-thienyl)pyrrolo[3,2-b]pyridin-1-yl]-N,N-dimethyl-acetamide] | 50.1

From patent US10377753B2, “Substituted 4-azaindoles and their use as GluN2B receptor modulators” (Janssen Pharmaceutica NV, priority 2015, dated 2019)
